Test: in vitro
Conditions: human, hela cells, % viability

Row | Structure (SMILES) | viability at 28.5 h, 10 µM [%]
1 | COc1cccc(CN2CCOC3(CCN(C(=O)OCc4ccccc4)CC3)C2)c1 [CBK161098T] | 95.4
2 | COc1cc(CN2CCOC3(CCN(C(=O)OCc4ccccc4)CC3)C2)cc(OC)c1OC [CBK161104T] | 79.4
3 | O=C(OCc1ccccc1)N1CCC2(CC1)CN(c1ccc([N+](=O)[O-])cn1)CCO2 [CBK161111T] | 92
4 | Cc1cc(C)c(C#N)c(N2CCOC3(CCN(C(=O)OCc4ccccc4)CC3)C2)n1 [CBK161114T] | 91
5 | COc1cc(OC)nc(CN2CCOC3(CCN(C(=O)c4ccc5ccccc5c4)CC3)C2)n1 [CBK161121A] | 91.6
6 | O=C(O)c1cccc(S(=O)(=O)Nc2nc3c(Cl)cccc3s2)c1 [CBK161135] | 96.5
7 | CCOc1ccc2nc(NS(=O)(=O)c3cccc(C(=O)O)c3)sc2c1 [CBK161137] | 102
8 | O=C(O)c1cccc(S(=O)(=O)Nc2nc3ccccc3s2)c1 [CBK161138] | 102
9 | O=C(O)C1CCCN(C(=O)NCc2ccc3c(c2)OCO3)C1 (stereo not drawn) [CBK161346] | 93.4
10 | O=C(O)C1CCCN(C(=O)NCc2ccc(F)cc2)C1 (stereo not drawn) [CBK161364] | 95.7
11 | O=C(O)C1CCCN(C(=O)NCCOc2ccccc2)C1 (stereo not drawn) [CBK161366] | 115
12 | COc1ccc(CCNC(=O)N2CCCC(C(=O)O)C2)cc1 (stereo not drawn) [CBK161367] | 101
13 | Cc1ccc(NC(=O)N2CCCC(C(=O)O)C2)cc1 (stereo not drawn) [CBK161371] | 89.5
14 | CCOC(=O)CCCNC(=O)N1CCCC(C(=O)O)C1 (stereo not drawn) [CBK161374] | 83.5
15 | O=C(O)C1CCCN1C(=O)Nc1ccccc1Cl (stereo not drawn) [CBK161381] | 95.8
16 | COc1ccc(CCNC(=O)N2CCCC2C(=O)O)cc1 (stereo not drawn) [CBK161386] | 116
17 | COc1cc(C(=O)N2CCC(N(C)C)C2)ccc1Nc1cncc(-c2cc3ccccc3[nH]2)n1 (stereo not drawn) [CBK161475] | 90.6
18 | COc1cccc2cc(C(=O)NCc3ccc(NS(C)(=O)=O)cc3)oc12 [CBK161479] | 70.8
19 | CC(C)c1ccc(/C=C/C(=O)NCc2ccc(S(N)(=O)=O)cc2)cc1 [CBK161511] | 110
20 | NS(=O)(=O)c1ccc(CNC(=O)C2(c3ccccc3)CCCC2)cc1 [CBK161523] | 101
21 | Cc1ccc(CNC(=O)C2(c3ccccc3)CCCC2)cc1F [CBK161529] | 85.6
22 | CC(C)c1ccc(CNC(=O)C2(c3ccccc3)CCCC2)cc1 [CBK161531] | 96.8

Row | Structure (SMILES) | viability at 28.5 h, 10 µM [%]
23 | N#CCCCN1CCC(Oc2nccnc2OCc2ccc(Cl)cc2Cl)CC1 [CBK161568] | 94.4
24 | N#CCCCN1CCC(Oc2nccnc2OCc2cccc3ccccc23)CC1 [CBK161571] | 99.3
25 | CC(C)c1ccc(COc2nccnc2OC2CCN(CCCC#N)CC2)cc1 [CBK161576] | 96.5
26 | Clc1ccc(COc2nccnc2OCC2CCCO2)cc1Cl (stereo not drawn) [CBK161587] | 105
27 | Clc1ccc(COc2nccnc2OCc2cccnc2)cc1Cl [CBK161597] | 85
28 | CC(COC(C)(C)C)Oc1nccnc1OCc1ccc(Cl)c(Cl)c1 (stereo not drawn) [CBK161607] | 113
29 | CC(Oc1nccnc1OCc1ccc(Cl)c(Cl)c1)c1ccncc1 (stereo not drawn) [CBK161609] | 84.1
30 | Clc1ccc(COc2nccnc2OCc2cccnc2N2CCOCC2)cc1Cl [CBK161610] | 88.8
31 | CCCc1ccc(N(C)C(=O)c2ccc(C(C)(C)C)cc2)cc1 [CBK161612] | 103
32 | CCCc1ccc(N(C)C(=O)c2ccc(OCC)cc2)cc1 [CBK161615] | 107
33 | CCCc1ccc(N(C)C(=O)c2ccc(OC(F)(F)F)cc2)cc1 [CBK161616] | 91.4
34 | CCCCOc1ccc(C(=O)N(C)c2ccc(CCC)cc2)cc1 [CBK161619] | 95.9
35 | FC(F)(F)c1cnc(Oc2ccc(-n3ccnc3)cc2)c(Cl)c1 [CBK161625] | 90.9
36 | COC(=O)CCc1ccc(Oc2ncc(C(F)(F)F)cc2Cl)cc1 [CBK161628] | 111
37 | CC(N)(Cc1ccc(Oc2ncc(C(F)(F)F)cc2Cl)cc1)C(=O)O (stereo not drawn) [CBK161647] | 91.9
38 | O=C(O)c1ccccc1C(=O)c1ccc(Oc2ncc(C(F)(F)F)cc2Cl)cc1 [CBK161648] | 106
39 | CC(=O)N1CCN(c2ccc(Oc3ncc(C(F)(F)F)cc3Cl)cc2)CC1 [CBK161650] | 104
40 | O=C(O)Cc1ccc(Oc2ncc(C(F)(F)F)cc2Cl)cc1 [CBK161657] | 104
41 | CC(C)(C)OC(=O)Nc1ccc(Oc2ncc(C(F)(F)F)cc2Cl)cc1 [CBK161658] | 99.2
42 | O=C(Nc1nccs1)c1ccc2[nH]ccc2c1 [CBK161731] | 90.5
43 | CS(=O)(=O)Nc1ccc(CNC(=O)c2ccccc2Nc2cccc(C(F)(F)F)c2)cc1 [CBK161732] | 85.5
44 | O=C(NCc1ccc2c(c1)OCO2)c1ccc2[nH]ccc2c1 [CBK161750] | 106

Row | Structure (SMILES) | viability at 28.5 h, 10 µM [%]
45 | CC(C)c1ccc(CNC(=O)c2ccc3[nH]ccc3c2)cc1 [CBK161754] | 96.1
46 | CC(C)(C)OC(=O)Nc1ccc2c(ccn2CCN2CCOCC2)c1 [CBK161767] | 95
47 | CC(C)(C)OC(=O)N1CCC(COc2ccc(-c3ccncc3)cn2)CC1 [CBK161777] | 91.8
48 | Clc1ccc(COc2nccnc2OCCOc2ccccc2)cc1Cl [CBK161853] | 92.5
49 | COc1ccc(S(=O)(=O)N(Cc2c(F)cccc2F)C2CCN(C)CC2)cc1 [CBK161910T] | 109
50 | CC(C)(C)CN1CCC(Oc2nccnc2OCc2ccc(Br)cc2F)CC1 [CBK161946] | 116
51 | CC(C)Oc1ccc(C(=O)N2CCC(COc3ccc(-c4ccc(S(C)(=O)=O)cc4)cn3)CC2)nc1 [CBK161989] | 86.8
52 | CSCCCNC(=O)c1cnn2c(C)c(Cc3ccccc3C)c(C)nc12 [CBK162028] | 96.7
53 | Cc1nc2c(C(=O)NCCCOC(C)C)cnn2c(C)c1Cc1cccc(Cl)c1 [CBK162043] | 97.1
54 | CCOCCCNC(=O)c1cnn2c(C)c(Cc3cccc(OC)c3)c(C)nc12 [CBK162056] | 113
55 | CCOCCCNC(=O)c1cnn2c(C)c(Cc3cccc(C#N)c3)c(C)nc12 [CBK162081] | 101
56 | Cc1nc2c(C(=O)NCC(F)(F)F)cnn2c(C)c1Cc1cccc(C#N)c1 [CBK162093] | 91.6
57 | COCCNC(=O)c1cnn2c(C)c(Cc3cccc(C#N)c3)c(C)nc12 [CBK162096] | 94.6
58 | COCC1CCCN1C(=O)c1cnn2c(C)c(Cc3cccc(C#N)c3)c(C)nc12 (stereo not drawn) [CBK162099] | 99.6
59 | Cc1nc2c(C(=O)NCCCN3CCCC3=O)cnn2c(C)c1Cc1cccc(F)c1 [CBK162104] | 101
60 | Cc1nc2c(C(=O)NCC(F)(F)F)cnn2c(C)c1Cc1cccc(F)c1 [CBK162117] | 112
61 | CCOCCCNC(=O)c1cnn2c(C)c(CC)c(C)nc12 [CBK162129] | 93.7
62 | CCc1c(C)nc2c(C(=O)NC(CC)COC)cnn2c1C (stereo not drawn) [CBK162133] | 97.5
63 | CCc1c(C)nc2c(C(=O)N3CCOCC3)cnn2c1C [CBK162134] | 99.3
64 | CCc1c(C)nc2c(C(=O)NCCSC)cnn2c1C [CBK162147] | 97.2
65 | CCc1c(C)nc2c(C(=O)NCCCOC)cnn2c1C [CBK162149] | 82.2
66 | CCc1c(C)nc2c(C(=O)NCc3cc(C)on3)cnn2c1C [CBK162150] | 82.5

Row | Structure (SMILES) | viability at 28.5 h, 10 µM [%]
67 | CSCCCNC(=O)c1cnn2c(C)c(Cc3cccnc3)c(C)nc12 [CBK162164] | 104
68 | CNC(=O)c1cnn2c(C)c(Cc3cccnc3)c(C)nc12 [CBK162165] | 78.2
69 | COc1ccc(Cc2c(C)nc3c(C(=O)NCC4COc5ccccc5O4)cnn3c2C)cc1 (stereo not drawn) [CBK162179] | 102
70 | COCC1CCCN1C(=O)c1cnn2c(C)c(Cc3ccc(OC)cc3)c(C)nc12 (stereo not drawn) [CBK162190] | 107
71 | COc1ccc(Cc2c(C)nc3c(C(=O)NCCSC)cnn3c2C)cc1 [CBK162191] | 111
72 | Cc1nc2c(C(=O)N3CCNC(=O)C3)cnn2c(C)c1Cc1ccccc1 [CBK162197] | 90.3
73 | Cc1ccc(C(=O)N2CCC3(CC2)CC(=O)c2cc(Br)ccc2O3)cc1C [CBK162264] | 105
74 | Cc1ccc(C(=O)CN2CCC3(CC2)CC(=O)c2cc(Br)ccc2O3)cc1 [CBK162266] | 91.2
75 | Cc1cnc(CNC(=O)N2CCN(c3cc(C(F)(F)F)ccn3)CC2)cn1 [CBK162320] | 107
76 | O=C(NCC1CCCCC1)N1CCN(c2cc(C(F)(F)F)ccn2)CC1 [CBK162323] | 103
77 | COc1ccc(CCNC(=O)N2CCN(c3cc(C(F)(F)F)ccn3)CC2)cc1OC [CBK162330] | 105
78 | CC(NC(=O)N1CCN(c2cc(C(F)(F)F)ccn2)CC1)c1ccccc1 (stereo not drawn) [CBK162350] | 91.7
79 | CCOC(=O)N1CCC(NC(=O)N2CCN(c3cc(C(F)(F)F)ccn3)CC2)CC1 [CBK162353] | 103
80 | CN(Cc1ccc(-c2ccc(S(C)(=O)=O)cc2)nc1)C1CCNCC1 [CBK163942] | 99.1
81 | CC(C)(C)OC(=O)N1CCC(Oc2nccnc2OCc2ccc(Cl)cc2F)CC1 [CBK163968] | 104
82 | CN(Cc1ccc(-c2ccc(S(C)(=O)=O)cc2)nc1)C1CCN(C(=O)CC(F)(F)F)CC1 [CBK164098T] | 99.3
83 | COc1ccc(CCC(=O)N2CCC(N(C)Cc3ccc(-c4ccc(S(C)(=O)=O)cc4)nc3)CC2)cc1Cl [CBK164102T] | 86.6
84 | CN(Cc1ccc(-c2ccc(S(C)(=O)=O)cc2)nc1)C1CCN(C(=O)Cc2cccc(C(F)(F)F)c2)CC1 [CBK164104T] | 90.2
85 | CC(=O)NCc1cccc(-c2cc(COc3ccc4c(c3)OCO4)cnc2-c2ccc(Cl)cc2)c1 [CBK164106A] | 105
86 | CCc1ccc(CNC(=O)Cn2nnc(-c3ccc(C(C)N4CCC(C)CC4)cc3)n2)cc1 (stereo not drawn) [CBK164199T] | 97.5
87 | COc1cc(OC)cc(C(=O)N2CCC3(CC2)CC(=O)c2cc(C)c(C)cc2O3)c1 [CBK164201] | 83.3
